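In this assay, cells in 96-well plates receive the compound at five concentrations for 48 hours. Endpoints are linearly interpolated between the surrounding concentrations. TGI marks complete inhibition of growth.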
Assays:
Assay in all cases: DTP human tumour cell line panel, 48 h
HOP-62 NSCLC = system: HOP-62 NSCLC
HCT-116 colon = system: HCT-116 colon
HL-60(TB) leukemia = system: HL-60(TB) leukemia
NCI-H23 lung = system: NCI-H23 lung
SR leukemia = system: SR leukemia
A549 NSCLC = system: A549 NSCLC
DMS 273 small cell lung = system: DMS 273 small cell lung
DMS 114 small cell lung = system: DMS 114 small cell lung
HT29 colon = system: HT29 colon
HOP-18 NSCLC = system: HOP-18 NSCLC
OVCAR-8 ovarian = system: OVCAR-8 ovarian
EKVX NSCLC = system: EKVX NSCLC
MOLT-4 leukemia = system: MOLT-4 leukemia
SNB-19 CNS = system: SNB-19 CNS
ACHN renal = system: ACHN renal
OVCAR-3 ovarian = system: OVCAR-3 ovarian
SN12C renal = system: SN12C renal
UACC-62 melanoma = system: UACC-62 melanoma
LOX IMVI melanoma = system: LOX IMVI melanoma
OVCAR-5 ovarian = system: OVCAR-5 ovarian

`Cc1cc(=O)[nH]c(NN2C(Cl)C(=O)C2c2ccc([N+](=O)[O-])cc2)n1` (stereo not given) was tested, and the TGI (HOP-62 NSCLC) was 23 µM, the TGI (HCT-116 colon) was 22.3 µM and the TGI (HL-60(TB) leukemia) was 24.9 µM. The TGI (NCI-H23 lung) was 26.1 µM, the TGI (SR leukemia) was 34.5 µM and the TGI (A549 NSCLC) was > 100 µM. It also gave a TGI (DMS 273 small cell lung) of 22.7 µM, a TGI (DMS 114 small cell lung) of 28.7 µM and a TGI (HT29 colon) of 43.8 µM. For the same compound, the TGI (HOP-18 NSCLC) was 23.9 µM, the TGI (OVCAR-8 ovarian) was 82.5 µM and the TGI (EKVX NSCLC) was 78.8 µM. For the same compound, the TGI (MOLT-4 leukemia) was 43.2 µM, the TGI (SNB-19 CNS) was > 100 µM and the TGI (ACHN renal) was 33.7 µM. For the same compound, the TGI (OVCAR-3 ovarian) was 20.6 µM, the TGI (SN12C renal) was 24.5 µM and the TGI (UACC-62 melanoma) was 11.5 µM. For the same compound, the TGI (LOX IMVI melanoma) was 19.2 µM and the TGI (OVCAR-5 ovarian) was 52.8 µM.
